From ChEMBL document CHEMBL1156754, “Human P2Y(14) receptor agonists: truncation of the hexose moiety of uridine-5'-diphosphoglucose and its replacement with alkyl and aryl groups” (J Med Chem, 2010)
Active and inactive are the calls of the source. The calls are words filed in the database; no cut-off is given here.

Key:
P2Y purinoceptor 6 [1] = molecular target: T1, P2Y purinoceptor 6 (Homo sapiens, UniProt Q15077); assay: Agonist activity at human P2Y6 receptor expressed in human 1321N1 cells coexpressing phospholipase C-activating Gq protein assessed as [3H]inositol phosphate production; type: functional, cell-based
T1 sequence (Q15077 whole entry): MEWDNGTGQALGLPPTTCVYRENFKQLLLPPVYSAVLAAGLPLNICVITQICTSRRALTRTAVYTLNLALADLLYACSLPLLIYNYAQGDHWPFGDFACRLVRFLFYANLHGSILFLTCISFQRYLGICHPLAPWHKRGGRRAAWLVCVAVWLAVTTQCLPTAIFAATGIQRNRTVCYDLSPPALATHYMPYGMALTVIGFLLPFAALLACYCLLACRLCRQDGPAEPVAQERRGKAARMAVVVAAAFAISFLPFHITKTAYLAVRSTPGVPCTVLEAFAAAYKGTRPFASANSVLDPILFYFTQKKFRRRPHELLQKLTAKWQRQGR

P2Y purinoceptor 14 = molecular target: T2, P2Y purinoceptor 14 (Homo sapiens, UniProt Q15391); assay: Agonist activity at human P2Y14 receptor expressed in HEK293 cells coexpressing phospholipase C-activating Gi protein cells assessed as inhibition of forskolin induced [3H]cAMP production; type: functional, cell-based
T2 sequence (Q15391 whole entry): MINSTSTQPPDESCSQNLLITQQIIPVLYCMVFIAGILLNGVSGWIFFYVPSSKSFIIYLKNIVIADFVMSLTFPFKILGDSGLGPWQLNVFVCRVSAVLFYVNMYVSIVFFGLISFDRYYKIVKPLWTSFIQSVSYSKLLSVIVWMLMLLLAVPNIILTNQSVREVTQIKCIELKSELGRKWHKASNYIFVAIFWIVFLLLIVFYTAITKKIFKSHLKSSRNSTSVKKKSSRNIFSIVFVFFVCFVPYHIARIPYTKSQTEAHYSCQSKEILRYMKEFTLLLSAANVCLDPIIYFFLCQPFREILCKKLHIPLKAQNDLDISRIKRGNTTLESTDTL

Homo sapiens = species on record: Homo sapiens; assay: Selectivity, ratio of EC50 for human P2Y6 receptor to EC50 for human P2Y14 receptor
P2Y purinoceptor 6 [2] = molecular target: T1, P2Y purinoceptor 6; assay: Agonist activity at human P2Y6 receptor expressed in human 1321N1 cells coexpressing phospholipase C-activating Gq protein assessed as [3H]inositol phosphate production at 10 uM; type: functional, cell-based
[3] = molecular target: T3, P2Y purinoceptor 14 (Homo sapiens) (UniProt Q15391); assay: Agonist activity at human P2Y14 receptor expressed in HEK293 cells coexpressing phospholipase C-activating Gi protein cells assessed as inhibition of forskolin induced [3H]cAMP production at 10 uM; type: functional, cell-based
T3 sequence (whole entry): T2 sequence (Q15391 whole entry)

| SMILES | EC50 (P2Y purinoceptor 6 [1]; read-out: EC50) | EC50 (P2Y purinoceptor 14; read-out: EC50) | EC50 (P2Y purinoceptor 6 [2]) | other results |
| --- | --- | --- | --- | --- |
| O=c1ccn([C@@H]2O[C@H](COP(=O)(O)OP(=O)(O)O)[C@@H](O)[C@H]2O)c(=O)[nH]1 [URIDINE_DIPHOSPHATE] | 530 nM |  |  |  |
| CC(C)(C)OP(=O)(O)OP(=O)(O)OC[C@H]1O[C@@H](n2ccc(=O)[nH]c2=S)[C@H](O)[C@@H]1O | 2040 nM | 32 nM |  | Ratio EC50 (Homo sapiens): 64 |
| O=c1ccn([C@@H]2O[C@H](COP(=O)(O)C(F)(F)P(=O)(O)O)[C@@H](O)[C@H]2O)c(=O)[nH]1 |  | 63 nM |  | EC50 (P2Y purinoceptor 6 [1]; 1321-n1): Not Active |
| C#CCCOP(=O)(O)OP(=O)(O)OC[C@H]1O[C@@H](n2ccc(=O)[nH]c2=S)[C@H](O)[C@@H]1O |  | 11 nM | > 10000 nM |  |
| CCN(CC)CC.COP(=O)(O)OP(=O)(O)OC[C@H]1O[C@@H](n2ccc(=S)[nH]c2=O)[C@H](O)[C@@H]1O | 10400 nM |  |  | EC50 (P2Y purinoceptor 14; hek293): Not Active |
| COP(=O)(O)OP(=O)(O)OC[C@H]1O[C@@H](n2ccc(=O)[nH]c2=O)[C@H](O)[C@@H]1O |  | 2730 nM | > 10000 nM |  |
| CO/N=c1/ccn([C@@H]2O[C@H](COP(=O)(O)OP(=O)(O)O)[C@@H](O)[C@H]2O)c(=O)[nH]1 | 70 nM | 3320 nM |  |  |
| O=c1ccn([C@@H]2O[C@H](COP(=O)(O)OP(=O)(O)OCC(O)CO)[C@@H](O)[C@H]2O)c(=O)[nH]1 (some centres not stated) |  | 1600 nM | > 10000 nM |  |
| N#CCCOP(=O)(O)OP(=O)(O)OC[C@H]1O[C@@H](n2ccc(=O)[nH]c2=O)[C@H](O)[C@@H]1O |  | 7460 nM | > 10000 nM |  |
| O=c1[nH]c(=S)ccn1[C@@H]1O[C@H](COP(=O)(O)OP(=O)(O)O[C@H]2O[C@H](CO)[C@@H](O)[C@H](O)[C@H]2O)[C@@H](O)[C@H]1O |  | 11 nM | > 10000 nM |  |
| O=c1ccn([C@@H]2O[C@H](COP(=O)(O)OP(=O)(O)O)[C@@H](O)[C@H]2O)c(=S)[nH]1 | 447 nM | 1.92 nM |  | Ratio EC50 (Homo sapiens): 230 |
| O=c1ccn([C@H]2[C@H](O)[C@H](O)[C@@]3(COP(=O)(O)OP(=O)(O)O)C[C@H]23)c(=O)[nH]1 |  |  |  | Activity (P2Y purinoceptor 6 [2]): inactive; Activity [3]: inactive |
| COP(=O)(O)OP(=O)(O)OC[C@H]1O[C@@H](n2ccc(=O)[nH]c2=S)[C@H](O)[C@@H]1O |  | 56 nM | > 10000 nM |  |
| O=c1ccn([C@@]23C[C@H]2[C@H](COP(=O)(O)OP(=O)(O)O)[C@@H](O)[C@H]3O)c(=O)[nH]1 | 42 nM |  |  | Activity [3]: inactive |
| O=c1ccn([C@@H]2O[C@H](COP(=O)(O)OP(=O)(O)Oc3ccccc3)[C@@H](O)[C@H]2O)c(=O)[nH]1 | 7400 nM | 768 nM |  |  |
| CCOP(=O)(O)OP(=O)(O)OC[C@H]1O[C@@H](n2ccc(=O)[nH]c2=S)[C@H](O)[C@@H]1O |  | 39 nM | > 10000 nM | Ratio EC50 (Homo sapiens): > 250 |
| CCCOP(=O)(O)OP(=O)(O)OC[C@H]1O[C@@H](n2ccc(=O)[nH]c2=S)[C@H](O)[C@@H]1O | 9100 nM | 40 nM |  | Ratio EC50 (Homo sapiens): 230 |
| O=c1ccn([C@@H]2O[C@H](COP(=O)(O)OP(=O)(O)OC(CO)CO)[C@@H](O)[C@H]2O)c(=O)[nH]1 |  | 167 nM | > 10000 nM | Ratio EC50 (Homo sapiens): 59 |
| COc1ccc(OP(=O)(O)OP(=O)(O)OC[C@H]2O[C@@H](n3ccc(=O)[nH]c3=O)[C@H](O)[C@@H]2O)cc1 |  | 1900 nM | > 10000 nM |  |
| C#CCCOP(=O)(O)OP(=O)(O)OC[C@H]1O[C@@H](n2ccc(=O)[nH]c2=O)[C@H](O)[C@@H]1O | 1520 nM | 480 nM |  |  |
| O=c1[nH]c(=S)ccn1[C@@H]1O[C@H](COP(=O)(O)OP(=O)(O)O)[C@@H](O)[C@H]1O | 2360 nM | 320 nM |  |  |
| O=c1ccn([C@@H]2O[C@H](COP(=O)(O)OP(=O)(O)Oc3cccc(Cl)c3)[C@@H](O)[C@H]2O)c(=O)[nH]1 | 7370 nM | 1800 nM |  |  |
| O=c1ccn([C@@H]2O[C@H](COP(=O)(O)OP(=O)(O)Oc3ccc([N+](=O)[O-])cc3)[C@@H](O)[C@H]2O)c(=O)[nH]1 | 2760 nM | 1490 nM |  |  |
| CC(C)(C)OP(=O)(O)OP(=O)(O)OC[C@H]1O[C@@H](n2ccc(=O)[nH]c2=O)[C@H](O)[C@@H]1O |  | 252 nM |  | Ratio EC50 (Homo sapiens): 43 |
| O=c1ccn([C@@H]2O[C@H](COP(=O)(O)CP(=O)(O)O)[C@@H](O)[C@H]2O)c(=O)[nH]1 | 339 nM | 11 nM |  | Ratio EC50 (Homo sapiens): 31 |
| O=c1ccn([C@@H]2O[C@H](COP(=O)(O)CP(=O)(O)O)[C@@H](O)[C@H]2O)c(=S)[nH]1 | 1990 nM | 0.92 nM |  | Ratio EC50 (Homo sapiens): 2160 |
| O=c1[nH]c(=O)n([C@@H]2O[C@H](COP(=O)(O)C(F)(F)P(=O)(O)O)[C@@H](O)[C@H]2O)cc1I | 127 nM | 142 nM |  |  |
| O=c1ccn([C@@H]2O[C@H](COP(=O)(O)OP(=O)(O)OC3CCCCC3)[C@@H](O)[C@H]2O)c(=O)[nH]1 |  | 5160 nM | > 10000 nM |  |
